For the first experiment, the target named is Cathepsin S (Homo sapiens, UniProt P25774). The experiment is described as follows: Inhibitory concentration against human cysteine protease cathepsin S.
Sequence of Cathepsin S (P25774 whole entry): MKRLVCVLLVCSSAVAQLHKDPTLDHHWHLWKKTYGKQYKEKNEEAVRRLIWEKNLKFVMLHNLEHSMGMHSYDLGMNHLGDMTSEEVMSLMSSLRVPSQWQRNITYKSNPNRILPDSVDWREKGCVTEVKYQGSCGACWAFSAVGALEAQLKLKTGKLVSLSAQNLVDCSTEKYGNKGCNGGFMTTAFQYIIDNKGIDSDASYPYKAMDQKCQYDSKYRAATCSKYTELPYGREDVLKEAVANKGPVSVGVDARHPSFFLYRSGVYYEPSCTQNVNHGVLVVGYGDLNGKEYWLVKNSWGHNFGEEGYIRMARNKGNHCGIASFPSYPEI
By IC50 is commonly meant the concentration that gives 50% inhibition. A lower IC50 goes with greater potency. For `COc1ccccc1N1CCN(CCCCn2nc(-c3ccc(Cl)cc3)c3c2CCN(C(C)=O)C3)CC1`, the IC50 came out at 9.5 µM.

`CC(=O)N1CCc2c(c(-c3ccc(Cl)cc3)nn2CC(O)CN2CCN(C(c3ccc(F)cc3)c3ccc(F)cc3)CC2)C1` (configuration not stated) showed an IC50 of 1 µM. Compared with the last compound, the IC50 is about 9.5-fold lower.

As to `Cc1ccccc1N1CCN(CC(O)Cn2nc(-c3ccc(I)cc3)c3c2CCN(C(N)=O)C3)CC1` (configuration not stated), the IC50 was found to be 14 µM. This IC50 is about 14-fold higher than that of the compound before.

In turn, `N#Cc1ccccc1N1CCN(CC(Cn2nc(-c3ccc(I)cc3)c3c2CCN(C(N)=O)C3)OC(N)=O)CC1` (configuration not stated) yielded an IC50 of 0.02 µM.

As for `CC(=O)N1CCc2c(c(-c3ccc(Cl)cc3)nn2CC(O)CN2CCN(c3ccccc3Cl)CC2)C1` (configuration not stated), half-maximal inhibition (IC50) required 1 µM.

As to `COc1ccccc1N1CCN(CC(O)Cn2nc(-c3ccc(I)cc3)c3c2CCN(C(C)=O)C3)CC1` (configuration not stated), the IC50 was 0.6 µM.

Tested on in the next experiment: not listed separately
In words: Inhibitory concentration against human Li processing. The format is functional.
`N#Cc1ccccc1N1CCN(CC(Cn2nc(-c3ccc(I)cc3)c3c2CCN(C(N)=O)C3)OC(N)=O)CC1` (configuration not stated) showed an IC50 of 0.88 µM.

The record behind these values is ChEMBL document CHEMBL1137979, “Nonpeptidic, noncovalent inhibitors of the cysteine protease cathepsin S” (J Med Chem, 2004).
